# Reference: US20120157448A1, “COMPOUNDS FOR TREATING NEURODEGENERATIVE DISEASES” (priority 2010, published 2012)
# Target: T1, BACE-1 (Homo sapiens, UniProt P56817)
# T1 construct: endogenous in cells; host or cells: HEK-293 cells stably transfected with wild type APP695
# Test: Cellular BACE-1 inhibition assay (in vitro cellular Amyloidβ 1-40 production, HTRF immunoassay)
# Assay type: cell-based
# Conditions: not given
# Procedure: Materials and Methods: HEK-293 cells stably transfected with a DNA construct containing the coding sequence for the wild type APP695 sequence were grown in Dulbecco's Modified Eagle Medium (“DMEM”) supplemented with 10% fetal bovine serum, penicillin/streptomycin and 150 μg/mL G418. Cells were plated in 96-well plates at 35,000 cells/well and allowed to attach for 8-12 hours. Media was changed to DMEM supplemented with 10% fetal bovine serum, penicillin/streptomycin 15 minutes prior to compound addition. Diluted compounds were then added at a final concentration of 0.5% DMSO. After 48 hours, 4 μL of media from each well was added to a corresponding well of a 384 well plate (Perkin Elmer Cat#6008280) containing the HTRF reagents. HTRF reagents were obtained from the CisBio Amyloid β 1-40 peptide assay kit (Cat#62B40PEC) and were prepared as follows anti-peptide β (1-40)-Cryptate and anti-peptide […] were stored in 2 plate aliquots at −80° C. Diluent and Reconstitution buffer were stored at 4° C. Aliquots of the two antibodies were diluted 1:100 with Reconstitution buffer, and this mixture was diluted 1:2 with Diluent. 12 μL of the reagent mixture was added to the required wells of the 384 well assay plate. The assay plate was incubated at 4° C. for 17 hours and then analyzed for fluorescence at 665 and 620 nm. The following compounds were tested in the above assay. Some compounds were tested more than once, and the average is reported below.
# T1 sequence (P56817 46-501): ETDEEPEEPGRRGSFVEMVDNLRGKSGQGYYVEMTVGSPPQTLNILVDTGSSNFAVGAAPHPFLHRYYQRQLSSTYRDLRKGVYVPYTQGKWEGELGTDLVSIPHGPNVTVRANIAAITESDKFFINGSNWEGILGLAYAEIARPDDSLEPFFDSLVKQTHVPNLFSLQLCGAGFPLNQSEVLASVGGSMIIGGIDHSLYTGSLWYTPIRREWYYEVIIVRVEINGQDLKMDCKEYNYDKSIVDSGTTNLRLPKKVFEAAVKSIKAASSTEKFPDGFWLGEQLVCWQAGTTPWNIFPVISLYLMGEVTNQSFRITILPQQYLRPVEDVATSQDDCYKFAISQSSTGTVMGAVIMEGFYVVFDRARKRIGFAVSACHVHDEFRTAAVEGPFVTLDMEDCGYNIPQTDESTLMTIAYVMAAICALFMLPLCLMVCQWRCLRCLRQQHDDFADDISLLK
row,Compound,IC50 [nM]
1,"C[C@@]12CCOC[C@H]1C1(COC(N)=N1)c1cc(-c3cccnc3F)ccc1C2 (relative stereo) [Example 118, (4aR*,10aR*)-8-(2-fluoropyridin-3-yl)-4a-methyl-1,3,4,4a,5,10a-hexahydro-5′H-spiro[benzo[g]isochromene-10,4′-oxazol]-2′-amine]",219

# Same assay, conditions: inhibition of Amyloidβ 1-40 production; HEK-293 cells stably transfected with wild type APP695; 48 hours incubation; average where tested more than once; read-out: IC50
row,Compound,IC50 [nM]
1,"NC1=NC2(CO1)c1cc(-c3cccnc3F)ccc1OC1CCN(C(=O)OCc3ccccc3)C[C@@H]12 (mixture of isomers) [Example 5, rac-trans-(4a,10a)-benzyl 2′-amino-8-(2-fluoropyridin-3-yl)-1,4,4a,10a-tetrahydro-5′H-spiro[chromeno[3,2-c]pyridine-10,4′-oxazole]-2(3H)-carboxylate]",133
2,"NC1=NC2(CO1)c1cc(NC(=O)c3ccc(Br)cn3)ccc1OC1CCCCC12 (racemic) [Example 17, N-(2-amino-1′,2′,3′,4′,4a′,9a′-hexahydro-5H-spiro[oxazole-4,9′-xanthene]-7′-yl)-5-bromopicolinamide]",147
3,"NC1=NC2(CO1)c1cc(-c3cccnc3F)ccc1OC1CCNC[C@@H]12 (mixture of isomers) [Example 41, rac-trans-(4a,10a)-8-(2-fluoropyridin-3-yl)-1,2,3,4,4a,10a-hexahydro-5′H-spiro[chromeno[3,2-c]pyridine-10,4′-oxazol]-2′-amine]",1330
4,"NC1=NC2(CO1)c1cc(-c3cccnc3F)ccc1OC1CCN(CC(F)(F)F)C[C@@H]12 (mixture of isomers) [Example 44, rac-trans-(4a,10a)-8-(2-fluoropyridin-3-yl)-2-(2,2,2-trifluoroethyl)-1,2,3,4,4a,10a-hexahydro-5′H-spiro[chromeno[3,2-c]pyridine-10,4′-oxazol]-2′-amine]",304
5,"NC1=NC2(CS1)c1cc(-c3cncnc3)ccc1O[C@H]1CC(O)CC[C@@H]12 (relative stereo) [Example 26, (4a′S*,9a′R*)-2-amino-7′-(pyrimidin-5-yl)-1′,2′,3′,4′,4a′,9a′-hexahydro-5H-spiro[thiazole-4,9′-xanthen]-3′-ol]",86.6
6,"C[C@]12CCCO[C@@H]1[C@]1(COC(N)=N1)c1cc(-c3cncc(F)c3)ccc1O2 (relative stereo) [Example 88, (4R*,4a′S*,10a′R*)-8′-(5-fluoropyridin-3-yl)-4a′-methyl-3′,4′,4a′,10a′-tetrahydro-2′H,5H-spiro[oxazole-4,10′-pyrano[3,2-b]chromen]-2-amine]",154
7,"C[C@H]1OCCC2Oc3ccc(-c4cncc(Cl)c4)cc3[C@@]3(COC(N)=N3)[C@@H]21 (relative stereo) [Example 90, (1′R*4R*,4a′R*,10a′R*)-8′-(5-chloropyridin-3-yl)-1′-methyl-3′,4′,4a′,10a′-tetrahydro-1′H,5H-spiro[oxazole-4,10′-pyrano[4,3-b]chromen]-2-amine]",1340
8,"NC1=N[C@@]2(CO1)c1cc(-c3cccnc3F)ccc1O[C@H]1CCN(C(=O)CC3CC3)C[C@@H]12 (relative stereo) [Example 218, 1-((4aS*,4′R*,10aR*)-2′-amino-8-(2-fluoropyridin-3-yl)-1,4,4a,10a-tetrahydro-5′H-spiro[chromeno[3,2-c]pyridine-10,4′-oxazol]-2(3H)-yl)-2-cyclopropylethanone]",457
9,"NC1=NC2(CO1)c1cc(-c3cncnc3)ccc1OC1CCCCC12 (single isomer, unassigned) [Example 11, 7′-(pyrimidin-5-yl)-1′,2′,3′,4′,4a′,9a′-hexahydro-5H-spiro[oxazole-4,9′-xanthen]-2-amine]",69.5
10,"NC1=NC2(CO1)c1cc(-c3cncnc3)ccc1OC1CCCCC12 (single isomer, unassigned) [Example 12, 7′-(pyrimidin-5-yl)-1′,2′,3′,4′,4a′,9a′-hexahydro-5H-spiro[oxazole-4,9′-xanthen]-2-amine]",60.7
11,"Cc1nc(C(=O)Nc2ccc3c(c2)C2(COC(N)=N2)C2CCCCC2O3)co1 (single isomer, unassigned) [Example 14, N-(2-amino-1′,2′,3′,4′,4a′,9a′-hexahydro-5H-spiro[oxazole-4,9′-xanthene]-7′-yl)-2-methyloxazole-4-carboxamide]",73.5
12,"NC1=NC2(CO1)c1cc(NC(=O)c3ccc(Cl)cn3)ccc1OC1CCCCC12 (single isomer, unassigned) [Example 16, N-(2-amino-1′,2′,3′,4′,4a′,9a′-hexahydro-5H-spiro[oxazole-4,9′-xanthene]-7′-yl)-5-chloropicolinamide]",171
13,"NC1=NC2(CO1)c1cc(-c3cncnc3)ccc1OC1CCC(O)C[C@@H]12 (stereo in doubt) [Example 32, (4a′S*,9a′R*)-2-amino-7′-(pyrimidin-5-yl)-1′,2′,3′,4′,4a′,9a′-hexahydro-5H-spiro[oxazole-4,9′-xanthen]-2′-ol]",118
14,"NC1=NC2(CS1)c1cc(-c3cncnc3)ccc1OC1CCC(O)C[C@@H]12 (stereo in doubt) [Example 34, (4a′S*,9aR*)-2-amino-7′-(pyrimidin-5-yl)-1′,2′,3′,4′,4a′,9a′-hexahydro-5,4-spiro[thiazole-4,9′-xanthen]-2′-ol]",90.2
15,"CCOCC1CCC2Oc3ccc(-c4cncc(Cl)c4)cc3C3(COC(N)=N3)[C@H]2O1 (stereo in doubt) [Example 98, (4a′S*,10a′R*)-8′45-chloropyridin-3-yl)-2′-(ethoxymethyl)-3′,4′,4a′,10a′-tetrahydro-2H,5H-spiro[oxazole-4,10′-pyrano[3,2-b]chromen]-2-amine]",421
16,"CN1C(=O)CC2(N=C1N)c1cc(-c3cc(F)cc(Cl)c3)ccc1OC1CC3(CCC12)OCCO3 (stereo not shown) [Example 3, 2″-amino-7′-(3-chloro-5-fluorophenyl)-1″-methyl-2′,4′,4′a,5″,6″,9′a-hexahydro-1′H,1″H-dispiro[1,3-dioxolane-2,3′-xanthene-9′,4″-pyrimidine]-6″-one]",3080
17,"CN1C(=O)CC2(N=C1N)c1cc(-c3cc(F)cc(Cl)c3)ccc1OC1CC(=O)CCC12 (stereo not shown) [Example 4, 2-amino-7′-(3-chloro-5-fluorophenyl)-1-methyl-1′,4′,4a′,9a′-tetrahydro-1H-spiro[pyrimidine-4,9′-xanthene]-3′,6(2′H,5H)-dione]",1190
18,"NC1=NC2(CO1)c1cc(-c3cncc(Cl)c3)ccc1OC1CCC(F)CC12 (stereo not shown) [Example 27, 7′-(5-chloropyridin-3-yl)-2′-fluoro-1′,2′,3′,4′,4a′,9a′-hexahydro-5H-spiro[oxazole-4,9′-xanthen]-2-amine]",64.2
19,"NC1=NC2(CO1)c1cc(-c3cncc(Cl)c3)ccc1O[C@H]1CCC(O)C[C@H]12 (stereo partly shown) [Example 48, (4a′S,9a′S)-2-amino-7′-(5-chloropyridin-3-yl)-1′,2′,3′,4′,4a′,9a′-hexahydro-5H-spiro[oxazole-4,9′-xanthen]-2′-ol]",2550

# The next lines start with the values.
row,IC50 [nM],Compound
1,43.4,"NC1=NC2(CO1)c1cc(-c3cncc(Cl)c3)ccc1OC1CCCCC12 (racemic) [Example 9, 7′-(5-chloropyridin-3-yl)-1′,2′,3′,4′,4a′,9a′-hexahydro-5H-spiro[oxazole-4,9′-xanthen]-2-amine]"
2,7.8,"NC1=N[C@@]2(CO1)c1cc(-c3cncc(Cl)c3)ccc1OC1CC[C@H](OCC3CC3)C[C@@H]12 (relative stereo) [Example 28, (4R*,4a′S*,9a′R*)-7′-(5-chloropyridin-3-yl)-2′-(cyclopropylmethoxy)-1′,2′,3′,4′,4a′,9a′-hexahydro-5H-spiro[oxazole-4,9′-xanthen]-2-amine]"
3,8.9,"NC1=N[C@]2(CO1)c1cc(-c3cncc(Cl)c3)ccc1OC1CC[C@H](OCC3CC3)C[C@@H]12 (relative stereo) [Example 29, (4S*,4a′S*,9a′R*)-7′-(5-chloropyridin-3-yl)-2′-(cyclopropylmethoxy)-1′,2′,3′,4′,4a′,9a′-hexahydro-5H-spiro[oxazole-4,9′-xanthen]-2-amine]"
4,58.5,"NC1=NC2(CO1)c1cc(-c3cncc(Cl)c3)ccc1O[C@@H]1CCCC[C@H]12 (single isomer, unassigned) [Example 10, 7′-(5-chloropyridin-3-yl)-1′,2′,3′,4′,4a′,9a′-hexahydro-5H-spiro[oxazole-4,9′-xanthen]-2-amine]"
5,58.7,"Cc1nc(C(=O)Nc2ccc3c(c2)C2(COC(N)=N2)[C@@H]2CCCCC2O3)co1 (single isomer, unassigned) [Example 15, N-(2-amino-1′,2′,3′,4′,4a′,9a′-hexahydro-5H-spiro[oxazole-4,9′-xanthene]-7′-yl)-2-methyloxazole-4-carboxamide]"
6,24.1,"NC1=NC2(CS1)c1cc(-c3cncc(Cl)c3)ccc1OC1CC(O)CC[C@@H]12 (single isomer, unassigned) [Example 25, (4a′S*,9aR*)-2-amino-7′-(5-chloropyridin-3-yl)-1′,2′,3′,4′,4a′,9a′-hexahydro-5H-spiro[thiazole-4,9′-xanthen]-3′-ol]"
7,41,"CC(C)CS(=O)(=O)N1CC[C@@H]2Oc3ccc(-c4cccnc4F)cc3[C@]3(COC(N)=N3)[C@H]2C1 (single isomer, unassigned) [Example 120]"
8,47.3,"NC1=NC2(CO1)c1cc(-c3cccnc3F)ccc1OC1CCC(O)C[C@@H]12 (stereo in doubt) [Example 31, (4a′S*,9a′R*)-2-amino-7′-(2-fluoropyridin-3-yl)-1′,2′,3′,4′,4a′,9a′-hexahydro-5H-spiro[oxazole-4,9′-xanthen]-2′-ol]"
